Assay results: patent publication US20230089073A1 (Carmot Therapeutics, Inc., priority 2021, published 2023)

Molecular target: T1, human GLP-1 receptor (Homo sapiens, UniProt P43220)
T1 construct: expressed in transfected cells
Test: GLP-1R cAMP Assay
Type: cell-based
Conditions: cAMP accumulation in CHO cells stably overexpressing the human GLP-1 receptor; 30 min treatment; HitHunter cAMP kit; read-out: EC50
Procedure, shortened: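 CHO cells stably overexpressing human GLP-1R, 10,000 cells/well, treated with compound in 20-point dose response in triplicate for 30 min. cAMP accumulation read by enzyme-complementation luminescence after lysis and overnight incubation; dose-response curves fitted.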

T1 sequence (P43220 24-463): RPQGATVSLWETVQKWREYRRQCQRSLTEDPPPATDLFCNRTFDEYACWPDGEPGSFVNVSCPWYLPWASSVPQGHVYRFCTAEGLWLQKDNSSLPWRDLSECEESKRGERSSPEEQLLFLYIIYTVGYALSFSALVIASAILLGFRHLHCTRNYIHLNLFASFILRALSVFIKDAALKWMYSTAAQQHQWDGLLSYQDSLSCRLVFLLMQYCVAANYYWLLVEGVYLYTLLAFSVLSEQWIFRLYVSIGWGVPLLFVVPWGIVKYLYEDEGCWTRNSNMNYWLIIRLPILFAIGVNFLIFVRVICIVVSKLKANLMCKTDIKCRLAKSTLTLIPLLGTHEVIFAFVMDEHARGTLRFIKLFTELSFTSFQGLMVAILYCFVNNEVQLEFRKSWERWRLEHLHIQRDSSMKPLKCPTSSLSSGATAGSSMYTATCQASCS

Row | SMILES | EC50
1 | N#Cc1cc(Cl)ccc1OCc1cccc(CC2CCN(Cc3nc4ccc(C(=O)O)cc4n3Cc3ncco3)CC2)c1 [Compound 159, 2-{[4-({3-[(4-chloro-2-cyanophenoxy)methyl]phenyl}methyl)piperidin-1-yl]methyl}-1-[(1,3-oxazol-2-yl)methyl]-1H-1,3-benzodiazole-6-carboxylic acid] | < 0.05 µM
2 | O=C(O)c1ccc2nc(CN3CCC(Cc4ccc(F)c(COc5ccc(Cl)cc5Cl)c4)CC3)n(C[C@@H]3CCO3)c2c1 [Compound 162, 2-{[4-({3-[(2,4-dichlorophenoxy)methyl]-4-fluorophenyl}methyl)piperidin-1-yl]methyl}-1-{[(2S)-oxetan-2-yl]methyl}-1H-1,3-benzodiazole-6-carboxylic acid] | < 0.05 µM
3 | O=C(O)c1ccc2nc(CN3CCC(Oc4ccnc(COc5ccc(Cl)cc5Cl)c4)CC3)n(C[C@H]3CCOC3)c2c1 [Compound 169, 2-{[4-({2-[(2,4-dichlorophenoxy)methyl]pyridin-4-yl}oxy)piperidin-1-yl]methyl}-1-{[(3R)-oxolan-3-yl]methyl}-1H-1,3-benzodiazole-6-carboxylic acid] | < 0.05 µM
4 | O=C(O)c1ccc2nc(CN3CCC(Oc4ccnc(COc5ccc(Cl)cc5Cl)c4)CC3)n(Cc3ncco3)c2c1 [Compound 170, 2-{[4-({2-[(2,4-dichlorophenoxy)methyl]pyridin-4-yl}oxy)piperidin-1-yl]methyl}-1-[(1,3-oxazol-2-yl)methyl]-1H-1,3-benzodiazole-6-carboxylic acid] | < 0.05 µM

Now from value to compound:

Row | EC50 | SMILES
5 | < 0.05 µM | N#Cc1cc(Cl)ccc1OCc1cccc(CC2CCN(Cc3nc4ccc(C(=O)O)cc4n3C[C@H]3CCOC3)CC2)c1 [Compound 158, 2-{[4-({3-[(4-chloro-2-cyanophenoxy)methyl]phenyl}methyl)piperidin-1-yl]methyl}-1-{[(3R)-oxolan-3-yl]methyl}-1H-1,3-benzodiazole-6-carboxylic acid]
6 | < 0.05 µM | CCn1cncc1Cn1c(CN2CCN(C(=O)c3cnc(COc4ccc(C5CC5)cc4Cl)o3)CC2)nc2ccc(C(=O)O)cc21 [Compound 160, 2-[(4-{2-[(2-chloro-4-cyclopropylphenoxy)methyl]-1,3-oxazole-5-carbonyl}piperazin-1-yl)methyl]-1-[(1-ethyl-1H-imidazol-5-yl)methyl]-1H-1,3-benzodiazole-6-carboxylic acid]
7 | < 0.05 µM | CCn1cncc1Cn1c(CN2CCC(C(F)(F)c3cccc(COc4ccc(Cl)cc4Cl)c3)CC2)nc2ccc(C(=O)O)cc21 [Compound 161, 2-{[4-({3-[(2,4-dichlorophenoxy)methyl]phenyl}difluoromethyl)piperidin-1-yl]methyl}-1-[(1-ethyl-1H-imidazol-5-yl)methyl]-1H-1,3-benzodiazole-6-carboxylic acid]
8 | < 0.05 µM | CCn1cncc1Cn1c(CN2CCC(Cc3cccc(COc4ccc(Cl)cc4C#N)c3)CC2)nc2ccc(C(=O)O)cc21 [Compound 165, 2-{[4-({3-[(4-chloro-2-cyanophenoxy)methyl]phenyl}methyl)piperidin-1-yl]methyl}-1-[(1-ethyl-1H-imidazol-5-yl)methyl]-1H-1,3-benzodiazole-6-carboxylic acid]
9 | < 0.05 µM | N#Cc1cc(Cl)ccc1OCc1cccc(CC2CCN(Cc3nc4ccc(C(=O)O)cc4n3C[C@@H]3CCO3)CC2)c1 [Compound 166, 2-{[4-({3-[(4-chloro-2-cyanophenoxy)methyl]phenyl}methyl)piperidin-1-yl]methyl}-1-{[(2S)-oxetan-2-yl]methyl}-1H-1,3-benzodiazole-6-carboxylic acid]
10 | < 0.05 µM | O=C(O)c1ccc2nc(CN3CCC(Oc4ccnc(COc5ccc(Cl)cc5Cl)c4)CC3)n(C[C@@H]3CCO3)c2c1 [Compound 168, 2-{[4-({2-[(2,4-dichlorophenoxy)methyl]pyridin-4-yl}oxy)piperidin-1-yl]methyl}-1-{[(2S)-oxetan-2-yl]methyl}-1H-1,3-benzodiazole-6-carboxylic acid]
